Measurements taken from US4552684A, “Dichroic dye and liquid crystalline composition for color display” (Mitsui Toatsu Chemicals, Inc., priority 1983, dated 1985).

Assays:
Assay type in all cases: physicochemical
color of dye in toluene = assay: color of dye in toluene
[1] = dichroic ratio of dye dissolved in liquid crystals (homogeneously aligned 10 micron cell); settings: for Dichroic ratio in liquid crystals E-8: Table 1 method: 1.0% by weight dye, 10 micron gap
Protocol: The dichroic ratio is determined as follows:
The cell was placed in the light path of a spectro-photometer. Straight polarized light parallel to the alignment of the liquid crystals was applied to the cell, and the absorbance ([…] ) was measured. Furthermore, straight polarized light at right angles to the alignment of the liquid crystals was applied, and the absorbance ([…] ) was measured. The dichroic ratio was calculated from the following equation. [formula]

[2] = solubility of dye in liquid crystals E-8; settings: for Solubility: in liquid crystals E-8 at 25° C.
Protocol: This is the solubility (% by weight) of each dye in liquid crystals E-8 (made by Merck & Co.) at 25° C.

[3] = dichroic ratio and maximum absorption wavelength in cyanobiphenyl/cyanoterphenyl liquid crystal mixture
Protocol: 0.1 Part by weight of the dye No. 8 in Table 1 was dissolved in 10 parts by weight of a liquid crystal mixture composed of 43% of 4-n-pentyl-4'-cyano-biphenyl, 17% of 4-n-propoxy-4'-cyanobiphenyl, 13% of 4-n-pentoxy-4'-cyanobiphenyl, 17% of 4-n-octoxy-4'-cyanobiphenyl and 10% of 4-n-pentyl-4'-cyanoterphenyl. The resulting color liquid crystal mixture was sealed into a glass cell having a gap of 10 microns which had been subjected to homogeneous aligning treatment. The maximum absorption wavelength was 512 nm and the dichroic ratio was 10.2. A display device obtained by sealing this color liquid crystal mixture into a glass liquid crystal display element of the same structure as above including transparent electrodes assumed a red color entirely in the absence of a voltage applied, and when a voltage was applied, only the part of the electrodes became nearly colorless, thus showing a good contrast.

[4] = light fastness (total current after exposure of cell to solar light for 200 hours); settings: for Light fastness: 0.5% by weight dye in E-8, solar light 200 hours, rectangular wave 6Vp-p, 32 Hz, total current
Protocol: 0.5% by weight of each dye was dissolved in the liquid crystals E-8, and the solution was sealed into a liquid crystal wall having a gap of 10 microns and including a pair of facing transparent electrodes with an area of 1.0 cm^2. The cell was exposed to solar light for 200 hours. Then, a voltage of a rectangular wave form (6Vp-p, 32 Hz) was applied, and the total current was measured (μA/cm^2).

[5] = maximum absorption wavelength of dye in liquid crystals
Protocol: The crude dye was purified by the same column chromatographic technique as in Example 1 to give a blue dye having a melting point of 155° to 157° C. (Dye No.19 in Table 1). The dichroic ratio of the dye was measured in the liquid crystals E-8 in the same way as described above with regard to Table 1, and found to be 10.3 (λmax 616 nm). […] When liquid crystals ZLI-1840 were used instead of the liquid crystals E-8, the dichroic ratio of the dye was 10.8 (λmax 612 nm). When liquid crystals ZLI-1275 were used, the dichroic ratio was 10.1 (λmax 616 nm).

SMILES | Color in toluene (color of dye in toluene) | Dichroic ratio in liquid crystals E-8 [1] | also measured
CCCCCC1CCC(c2nc3cc4c(c(O)c3o2)C(=O)c2c(O)ccc(O)c2C4=O)CC1 (centres unmarked) [Dye No. 18] | Orange | 9.8 | 
CC(C)(C)CC(C)(C)[C@H]1CC[C@H](c2nc3c(N)c4c(c(O)c3o2)C(=O)c2c(O)cccc2C4=O)CC1 [No. 22] |  |  | dichroic ratio ([1]; liquid crystals ZLI-1840): 12.3; solubility in liquid crystals E-8 ([2]; liquid crystals E-8, temperature not stated (Example 7)): 4.0%
CCCCCCCC1CCC(c2nc3c(O)c4c(c(N)c3o2)C(=O)c2ccccc2C4=O)CC1 (centres unmarked) [Dye No. 16] | Red | 8.0 | 
CCCCCC1CCC(c2nc3cc4c(c(O)c3s2)C(=O)c2ccccc2C4=O)CC1 (centres unmarked) [Dye No. 11] | Yellow | 8.5 | 
CC(C)(C)c1ccc(C2CCC(c3nc4c(N)c5c(c(O)c4o3)C(=O)c3ccccc3C5=O)CC2)cc1 (centres unmarked) [Dye No. 5] | Red | 10.1 | 
CCCCc1ccc(OC(=O)C2CCC(c3nc4c(N)c5c(c(O)c4o3)C(=O)c3c(N)ccc(O)c3C5=O)CC2)cc1 (centres unmarked) [Dye No. 27] | Blue | 9.2 | 
CCCCCC1CCC(c2nc3c(N)c4c(c(O)c3o2)C(=O)c2ccccc2C4=O)CC1 (centres unmarked) [No. 8] |  |  | dichroic ratio ([3]; 0.1 part dye in 10 parts cyanobiphenyl/cyanoterphenyl mixture (Example 4)): 10.2; maximum absorption wavelength ([3]; cyanobiphenyl/cyanoterphenyl mixture (Example 4)): 512 nm; Solubility [2]: 4.7 % by weight; solubility compared with known dyes A, B and C ([2]; liquid crystals E-8): higher solubility; Light fastness [4]: 2.0 μA/cm^2; light fastness compared with known dyes ([4]; as in Table 2): higher solubility and light fastness than known dyes A, B and C
Nc1c2c(c(O)c3oc(C4CCCCC4)nc13)C(=O)c1ccccc1C2=O [C, reference compound] |  |  | Solubility [2]: 0.4 % by weight
CC(C)(C)C1CCC(c2nc3cc4c(c(O)c3s2)C(=O)c2ccccc2C4=O)CC1 (centres unmarked) [Dye No. 13] | Yellow | 7.8 | 
CCCCc1ccc(Nc2cccc3c2C(=O)c2cccc(Nc4ccc(CCCC)cc4)c2C3=O)cc1 [B, reference compound] |  |  | Solubility [2]: 0.7 % by weight; Light fastness [4]: 3.6 μA/cm^2
CC(CCC1CCC(c2nc3c(O)c4c(c(O)c3o2)C(=O)c2ccccc2C4=O)CC1)CC(C)(C)C (centres unmarked) [Dye No. 7] | Orange | 8.1 | 
CCCCCC1CCC(c2nc3c(N)c4c(c(O)c3o2)C(=O)c2ccccc2C4=O)CC1 (centres unmarked) [Dye No. 8] | Red | 9.5 | 
CC(CC[C@H]1CC[C@H](c2nc3c(N)c4c(c(O)c3o2)C(=O)c2c(N)ccc(O)c2C4=O)CC1)CC(C)(C)C (some centres unmarked) [No.19] |  |  | λmax ([5]; liquid crystals E-8): 616 nm; λmax ([5]; liquid crystals ZLI-1275): 616 nm; λmax ([5]; liquid crystals ZLI-1840): 612 nm; dichroic ratio ([1]; liquid crystals ZLI-1275): 10.1; dichroic ratio ([1]; liquid crystals ZLI-1840): 10.8; solubility in E-8 ([2]; liquid crystals E-8, temperature not stated (Example 5)): 7.2 % by weight
CCCCCCCCCC1CCC(c2nc3c(N)c4c(c(O)c3o2)C(=O)c2c(N)cccc2C4=O)CC1 (centres unmarked) [Dye No. 2] | Violet | 8.2 | 
CCCCCCCC1CCC(c2nc3c(N)c4c(c(N)c3o2)C(=O)c2ccc(C(=O)OCCCC)cc2C4=O)CC1 (centres unmarked) [Dye No. 25] | Reddish violet | 9.3 | 
CN(C)c1ccc(N=Nc2ccc(N=Nc3ccccc3)cc2)cc1 [A, reference compound] |  |  | Solubility [2]: 1.1 % by weight; Light fastness [4]: 4.2 μA/cm^2

More lines, main results first:

Color in toluene (color of dye in toluene) | Dichroic ratio in liquid crystals E-8 [1] | SMILES | also measured
Red | 10.2 | CCCCCCCCCC1CCC(c2nc3c(N)c4c(c(O)c3o2)C(=O)c2cc(C)ccc2C4=O)CC1 (centres unmarked) [Dye No. 15] | 
Blue | 9.2 | CCCCCCCC1CCC(c2nc3cc4c(c(O)c3o2)C(=O)c2c(NC)ccc(NC)c2C4=O)CC1 (centres unmarked) [Dye No. 20] | 
Orange | 8.0 | CCCCc1ccc(OC(=O)C2CCC(c3nc4c(Cl)c5c(c(O)c4o3)C(=O)c3c(Cl)ccc(O)c3C5=O)CC2)cc1 (centres unmarked) [Dye No. 26] | 
Red | 9.5 | CCCCC1CCC(c2nc3c(N)c4c(c(O)c3o2)C(=O)c2ccccc2C4=O)CC1 (centres unmarked) [Dye No. 1] | 
Red | 9.3 | CCCCCCCCCCCCC1CCC(c2nc3c(N)c4c(c(O)c3o2)C(=O)c2ccccc2C4=O)CC1 (centres unmarked) [Dye No. 9] | 
Reddish violet | 8.1 | CCCCCC1CCC(c2nc3c(N)c4c(c(N)c3o2)C(=O)c2ccccc2C4=O)CC1 (centres unmarked) [Dye No. 10] | 
Reddish violet | 8.6 | CCCCCCCC1CCC(c2nc3c(N)c4c(c(O)c3o2)C(=O)c2ccc(C(=O)OCCCC)cc2C4=O)CC1 (centres unmarked) [Dye No. 24] | 
Orange | 6.9 | CCCCCC1CCC(c2nc3cc4c(c(NC)c3o2)C(=O)c2ccccc2C4=O)CC1 (centres unmarked) [Dye No. 17] | 
Orange | 9.3 | CCCCCOC(=O)C1CCC(c2nc3cc4c(c(O)c3o2)C(=O)c2c(O)ccc(O)c2C4=O)CC1 (centres unmarked) [Dye No. 3] | 
Blue | 10.5 | CCCCCCCCC1CCC(c2nc3c(N)c4c(c(O)c3o2)C(=O)c2c(N)ccc(O)c2C4=O)CC1 (centres unmarked) [Dye No. 14] | 
Orange | 8.1 | CCCCCC1CCC(c2nc3cc4c(c(O)c3o2)C(=O)c2ccc(CC(C)C)c(O)c2C4=O)CC1 (centres unmarked) [Dye No. 21] | 
Blue | 10.3 | CC(CC[C@H]1CC[C@H](c2nc3c(N)c4c(c(O)c3o2)C(=O)c2c(N)ccc(O)c2C4=O)CC1)CC(C)(C)C (some centres unmarked) [Dye No. 19] | 
Reddish violet | 11.6 | CC(C)(C)CC(C)(C)[C@H]1CC[C@H](c2nc3c(N)c4c(c(O)c3o2)C(=O)c2c(O)cccc2C4=O)CC1 [Dye No. 22] | 
Reddish violet | 8.2 | CCCCOC(=O)C1CCC(c2nc3c(N)c4c(c(O)c3o2)C(=O)c2c(O)cccc2C4=O)CC1 (centres unmarked) [Dye No. 23] | 
Yellow | 7.2 | CCCCC[C@H]1CC[C@H](c2nc3cc4c(c(O)c3o2)C(=O)c2ccccc2C4=O)CC1 [Dye No. 4] | 
Orange | 6.8 | CCCCOCCC1CCC(c2nc3c(Br)c4c(c(O)c3o2)C(=O)c2ccccc2C4=O)CC1 (centres unmarked) [Dye No. 6] | 
